Test results published in PubChem BioAssay AID248 (DTP/NCI, 2004).
Where “and” joins values, the source holds several entries; their conditions need not be identical. Equal entries are not always repeated. Inconclusive results and toxic doses are left out. Cut-off read from the data, not from the text of the source: active = T/C of 150% or more; inactive = T/C below 125%.

Tested on: L1210 leukemia ip in BDF1 mice, survival T/C
Assay: NCI In Vivo Anticancer Drug Screen. Data for tumor model L1210 Leukemia (intraperitoneal) in B6D2F1 (BDF1) mice
Conditions: endpoint: mean survival time, higher = longer survival
Procedure, shortened: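 Survival endpoint. Drug-treated group vs vehicle group, expressed as T divided by C. Tumor passaged by transplantation.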

[1] = dose: 12.5 mg/kg/injection, schedule: Q01DX009 (ip), vehicle: saline with Tween-80
[2] = dose: 100.0 mg/kg/injection, schedule: Q04DX003 (ip), vehicle: saline with Tween-80
[3] = dose: 200.0 mg/kg/injection, schedule: Q04DX003 (ip), vehicle: saline with Tween-80
[4] = dose: 100.0 mg/kg/injection, schedule: Q01DX009 (ip), vehicle: saline with Tween-80
[5] = dose: 200.0 mg/kg/injection, schedule: Q01DX009 (ip), vehicle: saline with Tween-80

Measured: T/C

Oc1cccc(-c2cccc(OCCCCCCCCCCBr)c2)c1
inactive: dose: 12.5 mg/kg/injection, schedule: Q01DX009 (ip), vehicle: DMSO 108 % of control | dose: 25.0 mg/kg/injection, schedule: Q01DX009 (ip), vehicle: DMSO 94 % of control | dose: 100.0 mg/kg/injection, schedule: Q04DX003 (ip), vehicle: DMSO 92 % of control | dose: 200.0 mg/kg/injection, schedule: Q04DX003 (ip), vehicle: DMSO 91 % of control

NC(=O)CNC(c1ccccc1)C(O)c1ccccc1 (stereo unspecified)
inactive: dose: 100.0 mg/kg/injection, schedule: Q01DX009 (ip), vehicle: Klucel (hydroxypropylcellulose) (HPC) 96 % of control | dose: 100.0 mg/kg/injection, schedule: Q04DX002 (ip), vehicle: Klucel (hydroxypropylcellulose) (HPC) 91 % of control | dose: 200.0 mg/kg/injection, schedule: Q01DX009 (ip), vehicle: Klucel (hydroxypropylcellulose) (HPC) 98 % of control | dose: 200.0 mg/kg/injection, schedule: Q04DX002 (ip), vehicle: Klucel (hydroxypropylcellulose) (HPC) 102 % of control | dose: 400.0 mg/kg/injection, schedule: Q01DX009 (ip), vehicle: Klucel (hydroxypropylcellulose) (HPC) 93 % of control | dose: 400.0 mg/kg/injection, schedule: Q04DX002 (ip), vehicle: Klucel (hydroxypropylcellulose) (HPC) 102 % of control

CCc1ccc(CC(=S)N2CCOCC2)cc1
inactive: dose: 100.0 mg/kg/injection, schedule: Q01DX001 (ip), vehicle: carboxymethylcellulose (CMC) 101 % of control | dose: 200.0 mg/kg/injection, schedule: Q01DX001 (ip), vehicle: carboxymethylcellulose (CMC) 95 % of control | dose: 400.0 mg/kg/injection, schedule: Q01DX001 (ip), vehicle: carboxymethylcellulose (CMC) 109 % of control

Cc1ccc(C)c(N=C=O)c1
inactive: dose: 6.25 mg/kg/injection, schedule: Q01DX009 (ip), vehicle: saline with Tween-80 98 % of control | [1] 96 % of control | dose: 25.0 mg/kg/injection, schedule: Q01DX009 (ip), vehicle: saline with Tween-80 93 % of control | [2] 104 % of control | [3] 109 % of control

O=C(CCc1ccccc1)NC(=S)Nc1cccc([N+](=O)[O-])c1
inactive: [1] 96 % of control and 98 % of control | dose: 50.0 mg/kg/injection, schedule: Q04DX003 (ip), vehicle: saline with Tween-80 96 % of control | dose: 100.0 mg/kg/injection, schedule: Q01DX001 (ip), vehicle: saline with Tween-80 93 % of control | dose: 100.0 mg/kg/injection, schedule: Q04DX002 (ip), vehicle: alcohol 104 % of control | [2] 91 % of control | dose: 200.0 mg/kg/injection, schedule: Q01DX001 (ip), vehicle: saline with Tween-80 104 % of control | dose: 200.0 mg/kg/injection, schedule: Q04DX002 (ip), vehicle: alcohol 93 % of control and 100 % of control | [3] 86 % of control | dose: 400.0 mg/kg/injection, schedule: Q04DX002 (ip), vehicle: alcohol 96 % of control

ClC(Cl)(Cl)c1cc(C(Cl)(Cl)Cl)nc(NCCCN2CCCC2)n1
inactive: [4] 99 % of control | [5] 96 % of control | dose: 400.0 mg/kg/injection, schedule: Q01DX009 (ip), vehicle: saline with Tween-80 95 % of control

COc1cc2c(cc1O)C(OC)(OC)CCCC2
inactive: dose: 50.0 mg/kg/injection, schedule: Q01DX009 (ip), vehicle: saline with Tween-80 96 % of control | [4] 96 % of control | [5] 93 % of control

O=C1OC(=O)C2C1C1C3C(=O)C4C5C(=O)C3C2C5C41 (stereo unspecified)
inactive: dose: 75.0 mg/kg/injection, schedule: Q04DX002 (ip), vehicle: Klucel (hydroxypropylcellulose) (HPC) 97 % of control | dose: 150.0 mg/kg/injection, schedule: Q04DX002 (ip), vehicle: Klucel (hydroxypropylcellulose) (HPC) 97 % of control | dose: 300.0 mg/kg/injection, schedule: Q04DX002 (ip), vehicle: Klucel (hydroxypropylcellulose) (HPC) 97 % of control
